Source: ChEMBL document CHEMBL4052735, “One-pot two-step facile synthesis of 2,3,4,5-tetra substituted dihydrooxazoles and their antimicrobial activity” (2017)
Converted amounts (≈) assume the structure as drawn. The source made the active and inactive calls. The rule behind the calls is not given here.

Assays:
Type in all cases: functional
Phytophthora infestans = assay: Antifungal activity against Phytophthora infestans after 48 to 72 hrs by disk diffusion method
Escherichia coli [1] = assay: Bactericidal activity against Escherichia coli after 24 hrs by visual and spectrophotometric analysis
Staphylococcus aureus [2] = assay: Antibacterial activity against Staphylococcus aureus after 24 hrs by visual and spectrophotometric analysis
Bacillus subtilis [3] = assay: Antibacterial activity against Bacillus subtilis after 24 hrs by visual and spectrophotometric analysis
Klebsiella pneumoniae [4] = assay: Ratio of MBC to MIC against Klebsiella pneumoniae
Escherichia coli [5] = assay: Antibacterial activity against Escherichia coli after 24 hrs by visual and spectrophotometric analysis
Klebsiella pneumoniae [6] = assay: Bactericidal activity against Klebsiella pneumoniae after 24 hrs by visual and spectrophotometric analysis
Staphylococcus aureus [7] = assay: Bactericidal activity against Staphylococcus aureus after 24 hrs by visual and spectrophotometric analysis
Bacillus subtilis [8] = assay: Bactericidal activity against Bacillus subtilis after 24 hrs by visual and spectrophotometric analysis
Klebsiella pneumoniae [9] = assay: Antibacterial activity against Klebsiella pneumoniae after 24 hrs by visual and spectrophotometric analysis
Staphylococcus aureus [10] = assay: Ratio of MBC to MIC against Staphylococcus aureus
Bacillus subtilis [11] = assay: Ratio of MBC to MIC against Bacillus subtilis
Escherichia coli [12] = assay: Ratio of MBC to MIC against Escherichia coli

SMILES | MIC (Phytophthora infestans) | MBC (Escherichia coli [1]) | MIC (Staphylococcus aureus [2]) | MIC (Bacillus subtilis [3]) | Ratio (Klebsiella pneumoniae [4]) | MIC (Escherichia coli [5]) | MBC (Klebsiella pneumoniae [6]) | MBC (Staphylococcus aureus [7]) | MBC (Bacillus subtilis [8]) | MIC (Klebsiella pneumoniae [9]) | Ratio (Staphylococcus aureus [10]) | Ratio (Bacillus subtilis [11]) | Ratio (Escherichia coli [12])
Cc1ccc(NC(=S)NN2C(c3ccccc3)=C(c3ccccc3)OC2c2ccc(O)cc2)cc1 (configuration not stated) | 14 mg/L (≈ 29.2 µM) |  |  |  |  |  |  |  |  |  |  |  | 
Cc1ccccc1NC(=S)NN1C(c2ccccc2)=C(c2ccccc2)OC1c1ccc(O)cc1 (configuration not stated) |  | inactive | inactive | inactive | 2 | inactive | 100 mg/L (≈ 209 µM) | inactive | inactive | 50 mg/L (≈ 104 µM) |  |  | 
COc1ccc(C2OC(c3ccccc3)=C(c3ccccc3)N2NC(=S)Nc2ccccc2C)cc1 (configuration not stated) |  | inactive | 30 mg/L (≈ 60.8 µM) | 20 mg/L (≈ 40.5 µM) | 2 | inactive | 50 mg/L (≈ 101 µM) | 100 mg/L (≈ 203 µM) | 50 mg/L (≈ 101 µM) | 25 mg/L (≈ 50.6 µM) | 3.3 | 2.5 | 
O=C(O)c1cn(C2CC2)c2cc(N3CCNCC3)c(F)cc2c1=O [CIPROFLOXACIN] |  | 25 mg/L (≈ 75.4 µM) | 6.5 mg/L (≈ 19.6 µM) | 10 mg/L (≈ 30.2 µM) |  |  | 10.2 mg/L (≈ 30.9 µM) | 12.5 mg/L (≈ 37.7 µM) | 25 mg/L (≈ 75.4 µM) | 6.25 mg/L (≈ 18.9 µM) |  |  | 
COc1ccc(C2OC(c3ccccc3)=C(c3ccccc3)N2NC(=S)Nc2ccccc2Cl)cc1 (configuration not stated) |  | 50 mg/L (≈ 97.3 µM) | inactive | inactive |  | 25 mg/L (≈ 48.6 µM) | inactive | inactive | inactive | inactive |  |  | 2
COc1ccccc1NC(=S)NN1C(c2ccccc2)=C(c2ccccc2)OC1c1ccc(O)cc1 (configuration not stated) |  | inactive | inactive | inactive | 2 | inactive | 50 mg/L (≈ 101 µM) | inactive | inactive | 25 mg/L (≈ 50.4 µM) |  |  | 
COc1ccc(C2OC(c3ccccc3)=C(c3ccccc3)N2NC(=S)Nc2ccc(C)cc2)cc1 (configuration not stated) | 14 mg/L (≈ 28.4 µM) |  |  |  |  |  |  |  |  |  |  |  | 
COc1ccc(C2OC(c3ccccc3)=C(c3ccccc3)N2NC(=S)Nc2ccccc2OC)cc1 (configuration not stated) |  | inactive | 40 mg/L (≈ 78.5 µM) | 30 mg/L (≈ 58.9 µM) |  | inactive | inactive | 100 mg/L (≈ 196 µM) | 50 mg/L (≈ 98.1 µM) | inactive | 2.5 | 1.6 | 
Oc1ccc(C2OC(c3ccccc3)=C(c3ccccc3)N2NC(=S)Nc2ccccc2Cl)cc1 (configuration not stated) |  | inactive | 30 mg/L (≈ 60 µM) | 40 mg/L (≈ 80 µM) |  | inactive | inactive | 50 mg/L (≈ 100 µM) | 100 mg/L (≈ 200 µM) | inactive | 1.6 | 2.5 | 
COC1=CC(=O)C[C@@H](C)[C@]12Oc1c(Cl)c(OC)cc(OC)c1C2=O [GRISEOFULVIN] | 20 mg/L (≈ 56.7 µM) |  |  |  |  |  |  |  |  |  |  |  | 
COc1ccc(C2OC(c3ccccc3)=C(c3ccccc3)N2NC(=S)Nc2ccc(Cl)cc2)cc1 (configuration not stated) | 16 mg/L (≈ 31.1 µM) |  |  |  |  |  |  |  |  |  |  |  | 
Oc1ccc(C2OC(c3ccccc3)=C(c3ccccc3)N2NC(=S)Nc2ccccc2)cc1 (configuration not stated) | 10 mg/L (≈ 21.5 µM) |  |  |  |  |  |  |  |  |  |  |  | 
Oc1ccc(C2OC(c3ccccc3)=C(c3ccccc3)N2NC(=S)Nc2ccc(Cl)cc2)cc1 (configuration not stated) | 16 mg/L (≈ 32 µM) |  |  |  |  |  |  |  |  |  |  |  | 
COc1ccc(NC(=S)NN2C(c3ccccc3)=C(c3ccccc3)OC2c2ccc(O)cc2)cc1 (configuration not stated) | 16 mg/L (≈ 32.3 µM) |  |  |  |  |  |  |  |  |  |  |  | 
